Data published in patent US20260297542A1, “HERBICIDE RESISTANT PLANTS” (SYNGENTA CROP PROTECTION AG, priority 2023, published 2026).
Where a chain is given by its changes, count along the chain named.

Assays:
[1] = target: T1, His-TEV-AtPP01 ΔcTP L479M (SEQ ID NO: 371) (Arabidopsis thaliana, UniProt P55826, L479M); test: activity rate of PPO variant in in vitro assay; type: biochemical; details: role: substrate; 1 uM protoporphyrinogen IX; no inhibitor
T1 construct: with cTPs removed; made in house; host or cells: E. coli BL21 (DE3), His GraviTrap, partially purified
T1 sequence (P55826 with tags, fused parts or gaps L479M): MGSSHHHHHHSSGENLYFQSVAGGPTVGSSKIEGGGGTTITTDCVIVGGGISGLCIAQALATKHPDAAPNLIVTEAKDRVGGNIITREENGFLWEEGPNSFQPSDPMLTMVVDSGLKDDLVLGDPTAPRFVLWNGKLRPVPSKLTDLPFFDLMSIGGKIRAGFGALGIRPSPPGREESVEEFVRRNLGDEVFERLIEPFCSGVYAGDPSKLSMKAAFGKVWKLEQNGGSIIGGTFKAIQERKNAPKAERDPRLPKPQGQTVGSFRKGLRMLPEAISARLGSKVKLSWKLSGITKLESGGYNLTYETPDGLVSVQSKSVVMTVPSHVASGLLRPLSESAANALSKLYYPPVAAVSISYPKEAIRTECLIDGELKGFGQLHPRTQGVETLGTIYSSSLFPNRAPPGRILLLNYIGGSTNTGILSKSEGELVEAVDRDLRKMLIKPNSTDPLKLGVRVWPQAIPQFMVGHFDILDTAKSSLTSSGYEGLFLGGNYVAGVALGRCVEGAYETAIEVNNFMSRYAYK
Text: (§1) A pET24 plasmid containing a DNA sequence encoding variants of AtPPO1 derived from Arabidopsis thaliana with cTPs removed and both a 6×His tag and TEV protease cleavage tag added at the N-terminus, codon-optimised for expression in E. coli, and under control of a T7 promoter, was synthesised by Twist Bioscience. The following variants were synthesised: WT AtPPO1 (SEQ ID NO: 370), AtPPO1 L479M (SEQ ID NO: 371), AtPPO1 L479N (SEQ ID NO: 372), AtPPO1 S305L Y426V (SEQ ID NO: 374) and AtPPO1 S305L Y426V L479M (SEQ ID NO: 373). This plasmid was expressed in E. coli BL21 (DE3) with 50 μg/mL kanamycin selection. 10 mL of overnight cultures grown at 37° C. were used to inoculate 1 L AIM (AIM-Terrific Broth Base including Trace elements, Formedium) in 2 L shake flasks. Cultures were grown at 37° C., 200 rpm for 3 hours and then overnight at 26° C. Cells were harvested centrifugation. 5-15 g of cell pellet was lysed in and resuspended in ratio of 1:1.5 in lysis buffer (20 mM Tris pH8, 500 mM sodium chloride, 10% glycerol, 1× complete Protease EDTA-free Inhibitor Tablet (Roche), 10 mM imidazole). The resuspension was sonicated at 75% using 10 cycles of 30 seconds, 40 seconds off. After sonication Triton X-100 was added to the lysates at a final concentration of 0.5%. The lysates were centrifuged at 20,000 rpm for 25 min at 4° C. Cleared lysates were loaded on His GraviTrap (Cytiva) columns, washed with 20 mL of lysis buffer and eluted in elution buffer (20 mM Tris pH8, 500 mM sodium chloride, 10% glycerol, 200 mM imidazole, 0.03% (v/v) Triton X-100). The eluate was desalted on a PD10 column and 2.5-3.2 mL was collected. Protein concentration was measured and calculated using the absorbance at 280 nm. Extracts were diluted 1 in 4 and 10 uL was analysed by SDS PAGE.
(§2) Partially purified Protoporphyrinogen Oxidase enzymes were assayed for activity using fluorescence adapted from the method of Shepherd & Dailey (Anal Biochem. 2005 344(1) 115-121). The assay was performed in black 384 well plates with a clear bottom and the total volume of the reaction mixture was 91 ul. The final assay mixture contained 100 mM K2HPO4 pH7.2, 1 mM Na2EDTA, 5 mM DTT, 20% glycerol (v/v), 0.05% Tween 20 (v/v), 1.1% DMSO (v/v), 1 uM protoporphyrinogen IX and 1.5 nM enzyme. Compounds were dissolved in DMSO at 1 mM and a 4-fold serial dilution carried out to give 8 rates. 1 ul was added to the assay mixture. This gave final compound concentrations of 11, 2.7, 0.69, 0.17, 0.04, 0.01, 0.002, 0.0007 uM. Enzyme and inhibitor were preincubated for 5 minutes prior to starting the reaction with the addition of the substrate. […] IC50s were calculated using GraphPad Prism 7.05 nonlinear regression (Table 6). Each compound was tested in duplicate.

[2] = target: T2, His-TEV-AtPP01 ΔcTP (SEQ ID NO: 370) (Arabidopsis thaliana, UniProt P55826); test: activity rate of PPO variant in in vitro assay; type: biochemical; details: role: substrate; 1 uM protoporphyrinogen IX; no inhibitor
T2 construct: with cTPs removed; made in house; host or cells: E. coli BL21 (DE3), His GraviTrap, partially purified
T2 sequence (P55826 with tags, fused parts or gaps): T1 sequence (P55826 with tags, fused parts or gaps L479M) with M464L
Text: as §1, §2

C=Cc1c2[nH]c(c1C)Cc1[nH]c(c(CCC(=O)O)c1C)Cc1[nH]c(c(C)c1CCC(=O)O)Cc1[nH]c(c(C)c1C=C)C2 [protoporphyrinogen IX]
Rate [1]: 9.9 rfu second^−1 pmole^−1
Rate [2]: 5.1 rfu second^−1 pmole^−1
